Patent US5659055A, “Cytoprotective fatty moiety compounds” (Virginia Commonwealth University, priority 1995, dated 1997)

Test system: PLA2 derived from plasma, sperm, platelets, human synovial fluid and N. naja cobra venom
Test: In vitro inhibition of PLA2 from a variety of sources (FIG. 8)
Format: biochemical

CCCCCCC(C/C=C\CCCCCCCC(=O)O)OC(=O)CCCCCCCCC(=O)O (stereo not shown) [RISE-1, Ricinoleic Acid--Sebacyl Ester]
in vitro inhibition of PLA2 from different sources: dose related, selective in vitro inhibition
